Source: patent publication US10633407B2, “14-membered ketolides and methods of their preparation and use” (President and Fellows of Harvard College, priority 2014, dated 2020)
In brackets after ≈: the same amount, converted by molar mass. Read-outs that look alike come from different tables or passages of the source.

Columns and labels:
Test in all cases: CLSI broth dilution MIC determination
Assay type in all cases: cell-based
[1] = test system: S. pyogenes Macrolide-resistant
[2] = test system: A. baumannii imipenem-resistant
[3] = test system: A. baumannii ATCC 19606
[4] = test system: K. pneumoniae ATCC 10031
[5] = test system: K. pneumoniae SHV-12
[6] = test system: K. pneumoniae TEM-10
[7] = test system: S. pneumoniae erm B + tet(M,O) genotype; settings: Streptococcus pneumoniae
Method in brief: (§1)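 Minimum inhibitory concentrations come from CLSI-standard broth dilution. The panel emphasises macrolide-resistance mechanisms, whose genotypes can be constitutive or inducible.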

[8] = test system: S. pneumoniae mef A genotype (second strain so labelled)
Method in brief: as §1

[9] = test system: S. aureus USA600, GISA
Method in brief: as §1

[10] = test system: S. pneumoniae mef A genotype (first strain so labelled)
Method in brief: as §1

[11] = test system: E. coli ATCC 25922
Method in brief: as §1

[12] = test system: E. coli CTX-M-14
Method in brief: as §1

[13] = test system: S. aureus MRSA: USA100
Method in brief: as §1

[14] = test system: E. coli NDM-1
Method in brief: as §1

[15] = test system: S. pneumoniae ATCC 49619
Method in brief: as §1

[16] = test system: E. coli TEM-1
Method in brief: as §1

[17] = test system: S. aureus erm A genotype
Method in brief: as §1

[18] = test system: H. influenzae ATCC49247
Method in brief: as §1

[19] = test system: S. aureus ATCC 29213
Method in brief: as §1

[20] = test system: S. pneumoniae erm B + mef A genotype
Method in brief: as §1

[21] = test system: S. aureus MRSA: USA300
Method in brief: as §1

[22] = test system: S. pyogenes ATCC 19615
[23] = test system: E. faecalis ATCC 29212
[24] = test system: A. baumannii IMP-4
[25] = test system: A. baumannii chromosomal class C
[26] = test system: H. influenzae Erythro >4, Azithro 1; settings: Haemophilus influenzae; read-out: MIC
Excerpt: MIC data was collected for the novel macrolides that this platform has produced against over 21 unique strains of B. subtilis, E. coli, S. aureus, S. pneumoniae, and H. influenzae, including several multidrug-resistant strains, with a special focus on macrolide resistant mechanisms (vide supra). […] CLSI standard procedures for broth dilution MIC determination were used. […] These genotypes can be constitutive or inducible.

[27] = test system: K. pneumoniae KPC-2
[28] = test system: P. aeruginosa HPA101-1477
[29] = test system: P. aeruginosa ATCC 27853
[30] = test system: E. faecalis Vancomycin-resistant
[31] = Streptococcus pyogenes, S. pyogenes Macrolide-resistant (MP-625 UNT-014), read-out: MIC
[32] = Acinetobacter baumannii, read-out: MIC
[33] = Acinetobacter baumannii, ATCC19606, A. baumannii ATCC 19606 (MP-15), read-out: MIC
[34] = Klebsiella pneumoniae, ATCC10031, K. pneumoniae ATCC 10031 (MP-14), read-out: MIC
[35] = Klebsiella pneumoniae, SHV12, read-out: MIC
[36] = Klebsiella pneumoniae, TEM10, read-out: MIC
[37] = Streptococcus pneumoniae, second strain (MP-627 UNT-039), read-out: MIC
[38] = Staphylococcus aureus, S. aureus USA600, GISA (MP-619 UNT-120), read-out: MIC
[39] = Streptococcus pneumoniae, first strain (MP-626 UNT-038)
[40] = Escherichia coli, ATCC25922, E. coli ATCC 25922 (MP-4), read-out: MIC
[41] = Escherichia coli, CTXM14, read-out: MIC
[42] = Staphylococcus aureus, S. aureus MRSA: USA100 (MP-618 UNT-096), read-out: MIC
[43] = Escherichia coli, NDM1, read-out: MIC
[44] = Streptococcus pneumoniae, ATCC49619, S. pneumoniae ATCC 49619 (MP-21), read-out: MIC
[45] = Staphylococcus aureus, S. aureus erm A genotype (MP-620 UNT-146), read-out: MIC
[46] = Haemophilus influenzae, read-out: MIC
[47] = Staphylococcus aureus, ATCC29213, S. aureus ATCC 29213 (MP-12), read-out: MIC
[48] = Staphylococcus aureus, S. aureus MRSA: USA300 (MP-549, msr(a)), read-out: MIC
[49] = Streptococcus pyogenes, ATCC19615, S. pyogenes ATCC 19615 (MP-19), read-out: MIC
[50] = Enterococcus faecalis, ATCC29212, E. faecalis ATCC 29212 (MP-24), read-out: MIC
[51] = Acinetobacter baumannii, IMP4, read-out: MIC
[52] = Klebsiella pneumoniae, KPC2, read-out: MIC
[53] = Pseudomonas aeruginosa, HPA1011477, read-out: MIC
[54] = Pseudomonas aeruginosa, ATCC27853, P. aeruginosa ATCC 27853 (MP-3), read-out: MIC
[55] = Enterococcus faecalis, E. faecalis Vancomycin-resistant (UNT-039), read-out: MIC

CC[C@H]1OC(=O)[C@@](C)(F)C(=O)[C@H](C)[C@@H](O[C@@H]2OC(C)CC(N(C)C)C2O)[C@](C)(OC)C[C@@H](C)C(=O)C[C@H]2N(CCCCn3cc(-c4cccc(N)c4)nn3)C(=O)O[C@]12C (stereo partly drawn) [FSM-21598]
MIC [1, 31]: 0.25 µg/mL (≈ 0.301 µM)
MIC [2, 32]: > 32 µg/mL
MIC [3, 33]: > 32 µg/mL
MIC [4, 34]: 8 µg/mL (≈ 9.63 µM)
MIC [5, 35]: > 32 µg/mL
MIC [6, 36]: > 32 µg/mL
MIC [7]: ≤ 0.0312 µg/mL
MIC [8, 37]: 0.25 µg/mL (≈ 0.301 µM)
MIC [9, 38]: > 32 µg/mL
MIC [10, 39]: ≤ 0.0312 µg/mL
MIC [11, 40]: > 32 µg/mL
MIC [12, 41]: > 32 µg/mL
MIC [13, 42]: > 32 µg/mL
MIC [14, 43]: > 32 µg/mL
MIC [15, 44]: ≤ 0.0312 µg/mL
MIC ([16]; Escherichia coli, TEM1): > 32 µg/mL
MIC [17, 45]: > 32 µg/mL
MIC [18, 46]: 4 µg/mL (≈ 4.81 µM)
MIC [19, 47]: 32 µg/mL (≈ 38.5 µM)
MIC ([20]; Streptococcus pneumoniae): 8 µg/mL (≈ 9.63 µM)
MIC [21, 48]: 32 µg/mL (≈ 38.5 µM)
MIC [22, 49]: ≤ 0.0312 µg/mL
MIC [23, 50]: ≤ 0.0312 µg/mL
MIC [24, 51]: > 32 µg/mL
MIC [25, 32]: 32 µg/mL (≈ 38.5 µM)
MIC [26]: 8 µg/mL (≈ 9.63 µM)
MIC [27, 52]: > 32 µg/mL
MIC [28, 53]: > 32 µg/mL
MIC [29, 54]: > 32 µg/mL
MIC [30, 55]: > 32 µg/mL

CC[C@H]1OC(=O)[C@H](C)[C@@H](O[C@H]2C[C@@](C)(OC)[C@@H](O)[C@H](C)O2)[C@H](C)[C@@H](O[C@@H]2O[C@H](C)C[C@H](N(C)C)[C@H]2O)[C@](C)(O)C[C@@H](C)CN(C)[C@H](C)[C@@H](O)[C@]1(C)O [Azithro, azithromycin, reference compound]
MIC ([1]; S. pyogenes Macrolide-resistant, Gram-positive): 2 µg/mL (≈ 2.67 µM)
MIC [1, 31]: 2 µg/mL (≈ 2.67 µM)
MIC [2, 32]: 8 µg/mL (≈ 10.7 µM)
MIC ([2]; Gram-negative): 8 µg/mL (≈ 10.7 µM)
MIC ([3]; A. baumannii ATCC 19606, Gram-negative): 16 µg/mL (≈ 21.4 µM)
MIC [3, 33]: 16 µg/mL (≈ 21.4 µM)
MIC ([4]; K. pneumoniae ATCC 10031, Gram-negative): 4 µg/mL (≈ 5.34 µM)
MIC [4, 34]: 4 µg/mL (≈ 5.34 µM)
MIC ([5]; Gram-negative): 16 µg/mL (≈ 21.4 µM)
MIC [5, 35]: 16 µg/mL (≈ 21.4 µM)
MIC ([6]; Gram-negative): 8 µg/mL (≈ 10.7 µM)
MIC [6, 36]: 8 µg/mL (≈ 10.7 µM)
MIC [7]: < 0.0312 µg/mL
MIC ([8]; Gram-positive): 4 µg/mL (≈ 5.34 µM)
MIC [8, 37]: 4 µg/mL (≈ 5.34 µM)
MIC ([9]; S. aureus USA600, GISA, Gram-positive): > 32 µg/mL
MIC [9, 38]: > 32 µg/mL
MIC [10, 39]: 0.25 µg/mL (≈ 0.334 µM)
MIC ([10]; first of two rows so labelled, Gram-positive): 0.25 µg/mL (≈ 0.334 µM)
MIC ([11]; E. coli ATCC 25922, Gram-negative): 4 µg/mL (≈ 5.34 µM)
MIC [11, 40]: 4 µg/mL (≈ 5.34 µM)
MIC [12, 41]: > 32 µg/mL
MIC ([12]; Gram-negative): > 32 µg/mL
MIC ([13]; S. aureus MRSA: USA100, Gram-positive): > 32 µg/mL
MIC [13, 42]: > 32 µg/mL
MIC [14, 43]: > 32 µg/mL
MIC ([14]; Gram-negative): > 32 µg/mL
MIC ([15]; S. pneumoniae ATCC 49619, Gram-positive): < 0.0312 µg/mL
MIC [15, 44]: < 0.0312 µg/mL
MIC ([16]; E. coli TEM-1, Gram-negative): 1 µg/mL (≈ 1.34 µM)
MIC ([16]; Escherichia coli, TEM1): 1 µg/mL (≈ 1.34 µM)
MIC ([17]; S. aureus erm A genotype, Gram-positive): > 32 µg/mL
MIC [17, 45]: > 32 µg/mL
MIC ([18]; Gram-negative): 0.5 µg/mL (≈ 0.668 µM)
MIC [18, 46]: 0.5 µg/mL (≈ 0.668 µM)
MIC ([19]; S. aureus ATCC 29213, Gram-positive): 1 µg/mL (≈ 1.34 µM)
MIC [19, 47]: 1 µg/mL (≈ 1.34 µM)
MIC ([20]; S. pneumoniae erm B + mef A genotype, Gram-positive): > 32 µg/mL
MIC ([20]; Streptococcus pneumoniae): > 32 µg/mL
MIC ([21]; S. aureus MRSA: USA300, Gram-positive): 32 µg/mL (≈ 42.7 µM)
MIC [21, 48]: 32 µg/mL (≈ 42.7 µM)
MIC ([22]; S. pyogenes ATCC 19615, Gram-positive): < 0.0312 µg/mL
MIC [22, 49]: < 0.0312 µg/mL
MIC ([23]; E. faecalis ATCC 29212, Gram-positive): 4 µg/mL (≈ 5.34 µM)
MIC [23, 50]: 4 µg/mL (≈ 5.34 µM)
MIC [24, 51]: > 32 µg/mL
MIC ([24]; Gram-negative): > 32 µg/mL
MIC [25, 32]: 32 µg/mL (≈ 42.7 µM)
MIC ([25]; Gram-negative): 32 µg/mL (≈ 42.7 µM)
MIC ([27]; Gram-negative): > 32 µg/mL
MIC [27, 52]: > 32 µg/mL
MIC ([28]; Gram-negative): > 32 µg/mL
MIC [28, 53]: > 32 µg/mL
MIC ([29]; P. aeruginosa ATCC 27853, Gram-negative): > 32 µg/mL
MIC [29, 54]: > 32 µg/mL
MIC ([30]; E. faecalis Vancomycin-resistant, Gram-positive): > 32 µg/mL
MIC [30, 55]: > 32 µg/mL

CC[C@H]1OC(=O)[C@H](C)C(=O)[C@H](C)[C@@H](O[C@@H]2OC(C)CC(N(C)C)C2O)[C@](C)(OC)C[C@@H](C)C(=O)C[C@H]2N(CCCCn3cc(-c4cccc(N)c4)nn3)C(=O)O[C@]12C (stereo partly drawn) [FSM-21535]
MIC [1, 31]: 0.5 µg/mL (≈ 0.615 µM)
MIC [2, 32]: > 32 µg/mL
MIC [3, 33]: > 32 µg/mL
MIC [4, 34]: 4 µg/mL (≈ 4.92 µM)
MIC [5, 35]: > 32 µg/mL
MIC [6, 36]: > 32 µg/mL
MIC [7]: ≤ 0.0312 µg/mL
MIC [8, 37]: 0.5 µg/mL (≈ 0.615 µM)
MIC [9, 38]: > 32 µg/mL
MIC [10, 39]: 0.0625 µg/mL (≈ 0.0769 µM)
MIC [11, 40]: > 32 µg/mL
MIC [12, 41]: > 32 µg/mL
MIC [13, 42]: > 32 µg/mL
MIC [14, 43]: > 32 µg/mL
MIC [15, 44]: ≤ 0.0312 µg/mL
MIC ([16]; Escherichia coli, TEM1): > 32 µg/mL
MIC [17, 45]: > 32 µg/mL
MIC [18, 46]: 4 µg/mL (≈ 4.92 µM)
MIC [19, 47]: 16 µg/mL (≈ 19.7 µM)
MIC ([20]; Streptococcus pneumoniae): 8 µg/mL (≈ 9.84 µM)
MIC [21, 48]: 32 µg/mL (≈ 39.4 µM)
MIC [22, 49]: ≤ 0.0312 µg/mL
MIC [23, 50]: ≤ 0.0312 µg/mL
MIC [24, 51]: > 32 µg/mL
MIC [25, 32]: > 32 µg/mL
MIC [26]: 8 µg/mL (≈ 9.84 µM)
MIC [27, 52]: > 32 µg/mL
MIC [28, 53]: > 32 µg/mL
MIC [29, 54]: > 32 µg/mL
MIC [30, 55]: > 32 µg/mL
